How the values were obtained:
[1] = molecular target: T1, Pancreatic triacylglycerol lipase (Sus scrofa, UniProt P00591); test: Inhibition of porcine pancreatic lipase using p-nitrophenyl butyrate as substrate preincubated for 5 mins followed by substrate addition measured after 5 mins by spectrophotometric analysis
T1 sequence (P00591 whole entry): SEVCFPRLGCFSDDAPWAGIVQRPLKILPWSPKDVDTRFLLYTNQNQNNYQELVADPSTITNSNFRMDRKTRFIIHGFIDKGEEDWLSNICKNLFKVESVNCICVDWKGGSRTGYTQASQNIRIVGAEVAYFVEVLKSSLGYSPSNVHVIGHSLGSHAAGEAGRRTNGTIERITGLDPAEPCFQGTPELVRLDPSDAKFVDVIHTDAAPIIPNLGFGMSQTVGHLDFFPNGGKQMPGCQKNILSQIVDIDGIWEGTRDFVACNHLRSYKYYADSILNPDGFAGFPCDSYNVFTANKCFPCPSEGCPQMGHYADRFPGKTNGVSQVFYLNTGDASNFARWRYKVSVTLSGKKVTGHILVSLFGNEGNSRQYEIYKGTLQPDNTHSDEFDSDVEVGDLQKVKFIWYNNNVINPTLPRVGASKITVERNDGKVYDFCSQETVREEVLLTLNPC

Sus scrofa = organism: Sus scrofa; test: Inhibition of porcine pancreatic lipase type 2 assessed as residual enzyme activity using tributyrin as substrate preincubated for 30 mins followed by substrate addition measured for 5 mins
[2] = molecular target: T1, Pancreatic triacylglycerol lipase; test: Binding affinity to porcine pancreatic lipase using p-nitrophenyl butyrate as substrate by dixon plot analysis
[3] = compound: O=C1S/C(=C\c2cn(-c3ccccc3)nc2-c2ccc(Cl)cc2)C(=O)N1Cc1ccc([N+](=O)[O-])cc1; test: Reversible competitive inhibition of porcine pancreatic lipase assessed as Km for substrate at 10 uM in presence of varying levels of p-nitophenyl butyrate by double reciprocal Lineweaver-burk plot analysis (reference value: 69.32 microM); conditions: Sus scrofa
[4] = compound: O=C1S/C(=C\c2cn(-c3ccccc3)nc2-c2ccc(Cl)cc2)C(=O)N1Cc1ccc([N+](=O)[O-])cc1; test: Reversible competitive inhibition of porcine pancreatic lipase assessed as Vmax for substrate at 5 uM in presence of varying levels of p-nitophenyl butyrate by double reciprocal Lineweaver-burk plot analysis (reference value: 0.0545 microM/min); conditions: Sus scrofa
[5] = compound: O=C1S/C(=C\c2cn(-c3ccccc3)nc2-c2ccc(Cl)cc2)C(=O)N1Cc1ccc([N+](=O)[O-])cc1; test: Reversible competitive inhibition of porcine pancreatic lipase assessed as Km for substrate at 5 uM in presence of varying levels of p-nitophenyl butyrate by double reciprocal Lineweaver-burk plot analysis (reference value: 69.32 microM); conditions: Sus scrofa
[6] = compound: O=C1S/C(=C\c2cn(-c3ccccc3)nc2-c2ccc(Cl)cc2)C(=O)N1Cc1ccc([N+](=O)[O-])cc1; test: Reversible competitive inhibition of porcine pancreatic lipase assessed as Km for substrate at 2.5 uM in presence of varying levels of p-nitophenyl butyrate by double reciprocal Lineweaver-burk plot analysis (reference value: 69.32 microM); conditions: Sus scrofa
[7] = compound: O=C1S/C(=C\c2cn(-c3ccccc3)nc2-c2ccc(Cl)cc2)C(=O)N1Cc1ccc([N+](=O)[O-])cc1; test: Reversible competitive inhibition of porcine pancreatic lipase assessed as Vmax for substrate at 2.5 uM in presence of varying levels of p-nitophenyl butyrate by double reciprocal Lineweaver-burk plot analysis (reference value: 0.0545 microM/min); conditions: Sus scrofa
[8] = compound: O=C1S/C(=C\c2cn(-c3ccccc3)nc2-c2ccc(Cl)cc2)C(=O)N1Cc1ccc([N+](=O)[O-])cc1; test: Reversible competitive inhibition of porcine pancreatic lipase assessed as Vmax for substrate at 10 uM in presence of varying levels of p-nitophenyl butyrate by double reciprocal Lineweaver-burk plot analysis (reference value: 0.0545 microM/min); conditions: Sus scrofa

Row | Molecule | IC50 [1] | XI50 (Sus scrofa) | also measured
1 | O=C1NC(=O)/C(=C/c2cn(-c3ccccc3)nc2-c2ccccc2)S1 | 18.8 µM | 65.1 | –
2 | O=C1NC(=O)/C(=C/c2cn(-c3ccccc3)nc2-c2ccc([N+](=O)[O-])cc2)S1 | 17.3 µM | 39.5 | –
3 | Cc1ccc(-c2nn(-c3ccccc3)cc2/C=C2\SC(=O)N(Cc3ccc([N+](=O)[O-])cc3)C2=O)cc1 | 9.87 µM | 19.3 | –
4 | O=C1S/C(=C\c2cn(-c3ccccc3)nc2-c2ccc([N+](=O)[O-])cc2)C(=O)N1Cc1ccc([N+](=O)[O-])cc1 | 8.44 µM | 18.7 | –
5 | O=C1NC(=O)/C(=C/c2cn(-c3ccccc3)nc2-c2ccc(F)cc2)S1 | 12.9 µM | 25.4 | –
6 | CCCCCCCCCCC[C@@H](C[C@@H]1OC(=O)[C@H]1CCCCCC)OC(=O)[C@H](CC(C)C)NC=O | – | 3.72 | –
7 | COc1ccc(-c2nn(-c3ccccc3)cc2/C=C2\SC(=O)NC2=O)cc1 | 13 µM | 24.4 | –
8 | O=C1NC(=O)/C(=C/c2cn(-c3ccccc3)nc2-c2ccc(Cl)cc2)S1 | 10.3 µM | 19.3 | –
9 | COc1ccc(-c2nn(-c3ccccc3)cc2/C=C2\SC(=O)N(Cc3ccc([N+](=O)[O-])cc3)C2=O)cc1 | 9.4 µM | 18.1 | –
10 | O=C1S/C(=C\c2cn(-c3ccccc3)nc2-c2ccc(Cl)cc2)C(=O)N1Cc1ccc([N+](=O)[O-])cc1 | 4.81 µM | 10 | Ki [2]: 14.4 µM
11 | Cc1ccc(-c2nn(-c3ccccc3)cc2/C=C2\SC(=O)NC2=O)cc1 | 15.1 µM | 27.2 | –
12 | O=C1S/C(=C\c2cn(-c3ccccc3)nc2-c2ccc(F)cc2)C(=O)N1Cc1ccc([N+](=O)[O-])cc1 | 5.42 µM | 13 | –
13 | O=C1S/C(=C\c2cn(-c3ccccc3)nc2-c2ccccc2)C(=O)N1Cc1ccc([N+](=O)[O-])cc1 | 12.5 µM | 21.8 | –
14 | Pancreatic triacylglycerol lipase (Sus scrofa), P00591 (protein) SEVCFPRLGCFSDDAPWAGIVQRPLKILPWSPKDVDTRFLLYTNQNQNNYQELVADPSTITNSNFRMDRKTRFIIHGFIDKGEEDWLSNICKNLFKVESVNCICVDWKGGSRTGYTQASQNIRIVGAEVAYFVEVLKSSLGYSPSNVHVIGHSLGSHAAGEAGRRTNGTIERITGLDPAEPCFQGTPELVRLDPSDAKFVDVIHTDAAPIIPNLGFGMSQTVGHLDFFPNGGKQMPGCQKNILSQIVDIDGIWEGTRDFVACNHLRSYKYYADSILNPDGFAGFPCDSYNVFTANKCFPCPSEGCPQMGHYADRFPGKTNGVSQVFYLNTGDASNFARWRYKVSVTLSGKKVTGHILVSLFGNEGNSRQYEIYKGTLQPDNTHSDEFDSDVEVGDLQKVKFIWYNNNVINPTLPRVGASKITVERNDGKVYDFCSQETVREEVLLTLNPC | – | – | Km [3]: 165 µM; Vmax [4]: 0.0557 µM/min; Km [5]: 145 µM; Km [6]: 125 µM; Vmax [7]: 0.0565 µM/min; Vmax [8]: 0.0566 µM/min

Reference: ChEMBL document CHEMBL4052758, “Design, synthesis, biological evaluation and molecular modelling studies of novel diaryl substituted pyrazolyl thiazolidinediones as potent pancreatic lipase inhibitors” (Bioorg Med Chem Lett, 2017)
